Reference: patent US7863449B2, “Modulators of muscarinic receptors” (Vertex Pharmaceuticals Incorporated, priority 2004, dated 2011)
Structures can show the parent of a compound that is named as a salt.

What was measured:
[1] = biological target: T1, M1 muscarinic receptor (Homo sapiens, UniProt P11229); assay: Functional mobilization of intracellular calcium (FLIPR), M1-CHO cells; assay type: cell-based; conditions: for Emax: 100% efficacy is the maximum response obtained using Carbachol as a control; for M1 Activity: M1-CHO cells, FLIPR calcium mobilization
T1 construct: expressed in transfected cells; host or cells: CHO (M1-CHO)
T1 sequence (P11229 1-460): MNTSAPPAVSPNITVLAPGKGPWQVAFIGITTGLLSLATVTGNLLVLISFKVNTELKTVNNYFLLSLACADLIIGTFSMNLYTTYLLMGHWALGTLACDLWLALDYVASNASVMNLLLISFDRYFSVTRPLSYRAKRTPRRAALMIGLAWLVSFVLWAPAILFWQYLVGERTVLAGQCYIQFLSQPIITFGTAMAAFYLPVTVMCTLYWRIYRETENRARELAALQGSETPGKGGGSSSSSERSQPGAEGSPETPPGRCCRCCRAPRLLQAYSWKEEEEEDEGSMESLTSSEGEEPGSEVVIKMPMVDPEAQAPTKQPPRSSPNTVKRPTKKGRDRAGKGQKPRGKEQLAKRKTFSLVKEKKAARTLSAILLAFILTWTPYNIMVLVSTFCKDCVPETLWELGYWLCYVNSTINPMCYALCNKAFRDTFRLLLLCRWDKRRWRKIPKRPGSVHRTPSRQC
Summary of the method: (§1)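 CHO cells expressing M1 or M4, loaded with Fluo-3 AM or Calcium 3 dye with 1 mM probenecid, 0.5% DMSO final. Agonist mode: compound added directly; antagonist mode: 15 min pre-incubation (or co-application) before carbachol at EC80. Fluorescence recorded 60 s on FLIPR.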

[2] = biological target: T2, M4 muscarinic receptor (Homo sapiens, UniProt P08173); assay: Functional mobilization of intracellular calcium (FLIPR), M4-CHO cells; assay type: cell-based; conditions: for Emax: 100% efficacy is the maximum response obtained using Carbachol as a control; for M4 Activity: M4-CHO cells, FLIPR calcium mobilization
T2 construct: expressed in transfected cells; host or cells: CHO (M4-CHO)
T2 sequence (P08173 1-479): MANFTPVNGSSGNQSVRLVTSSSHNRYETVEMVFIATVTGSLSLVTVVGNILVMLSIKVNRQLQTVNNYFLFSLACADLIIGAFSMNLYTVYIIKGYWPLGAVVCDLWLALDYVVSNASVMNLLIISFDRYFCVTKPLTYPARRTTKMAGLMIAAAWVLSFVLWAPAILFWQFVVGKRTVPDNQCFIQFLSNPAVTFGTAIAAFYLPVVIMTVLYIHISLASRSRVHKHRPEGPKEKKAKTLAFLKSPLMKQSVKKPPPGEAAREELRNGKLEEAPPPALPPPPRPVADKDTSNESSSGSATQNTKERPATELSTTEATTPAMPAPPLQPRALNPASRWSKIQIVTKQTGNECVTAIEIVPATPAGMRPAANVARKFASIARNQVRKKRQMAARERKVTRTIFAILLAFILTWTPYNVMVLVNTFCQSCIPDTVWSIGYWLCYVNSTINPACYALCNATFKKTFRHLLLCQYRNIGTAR
Summary of the method: as §1

SMILES: CCOC(=O)N1C2CCC(N3CCC4(CC3)CN(C(=O)OC3CCC3)Cc3ccccc34)CC1CC2 (stereo not drawn) [compound 112]
- Emax [1]: 25 to 100%
- M1 Activity [1]: +++ (activity was measured to be less than 1.0 μM)
- Emax [2]: 25 to 100%
- M4 Activity [2]: +++ (activity was measured to be less than 1.0 μM)

SMILES: CC(=O)N1Cc2ccccc2C2(CCN(Cc3ccc(F)cc3)CC2)C1 [compound 115]
- Emax [1]: < 25%
- M1 Activity [1]: + (activity was measured to be greater than 5.0 μM)
- Emax [2]: < 25%
- M4 Activity [2]: + (activity was measured to be greater than 5.0 μM)

SMILES: CC(=O)N1Cc2ccccc2C2(CCN(Cc3ccc4c(c3)CCO4)CC2)C1 [compound 116]
- Emax [1]: < 25%
- M1 Activity [1]: + (activity was measured to be greater than 5.0 μM)
- Emax [2]: < 25%
- M4 Activity [2]: + (activity was measured to be greater than 5.0 μM)

SMILES: COC(=O)c1ccccc1CN1CCC2(CC1)CN(C(C)=O)Cc1ccccc12 [compound 118]
- Emax [1]: < 25%
- M1 Activity [1]: + (activity was measured to be greater than 5.0 μM)
- Emax [2]: < 25%
- M4 Activity [2]: + (activity was measured to be greater than 5.0 μM)

SMILES: CCCS(=O)(=O)N1Cc2ccccc2C2(CCN(C3CC4CCC(C3)N4C(=O)OC3CCC3)CC2)C1 (stereo not drawn) [compound 119]
- Emax [1]: 25 to 100%
- M1 Activity [1]: +++ (activity was measured to be less than 1.0 μM)
- Emax [2]: 25 to 100%
- M4 Activity [2]: +++ (activity was measured to be less than 1.0 μM)

SMILES: CCOC(=O)N1CCC(N2CCC3(CC2)CN(C(=O)OCC)Cc2ccccc23)CC1 [compound 120]
- Emax [1]: 25 to 100%
- M1 Activity [1]: +++ (activity was measured to be less than 1.0 μM)
- Emax [2]: 25 to 100%
- M4 Activity [2]: +++ (activity was measured to be less than 1.0 μM)

SMILES: COc1cccc(CN2CCC3(CC2)CN(C(C)=O)Cc2ccccc23)c1 [compound 121]
- Emax [1]: < 25%
- M1 Activity [1]: + (activity was measured to be greater than 5.0 μM)
- Emax [2]: < 25%
- M4 Activity [2]: + (activity was measured to be greater than 5.0 μM)

SMILES: CCCCC(=O)N1Cc2ccccc2C2(CCN(C3CCN(C(=O)OCC)CC3)CC2)C1 [compound 122]
- Emax [1]: 25 to 100%
- M1 Activity [1]: +++ (activity was measured to be less than 1.0 μM)
- Emax [2]: 25 to 100%
- M4 Activity [2]: +++ (activity was measured to be less than 1.0 μM)

SMILES: CCOC(=O)N1CCC(N2CCC3(CC2)CN(C2CCCCC2C)Cc2ccccc23)CC1 (stereo not drawn) [compound 123]
- Emax [1]: 25 to 100%
- M1 Activity [1]: +++ (activity was measured to be less than 1.0 μM)
- Emax [2]: 25 to 100%
- M4 Activity [2]: +++ (activity was measured to be less than 1.0 μM)

SMILES: CCOC(=O)N1CCC(CN2CCC3(CC2)CN(C(=O)c2cccs2)Cc2ccccc23)CC1 [compound 124]
- Emax [1]: 25 to 100%
- M1 Activity [1]: +++ (activity was measured to be less than 1.0 μM)
- Emax [2]: 25 to 100%
- M4 Activity [2]: +++ (activity was measured to be less than 1.0 μM)

SMILES: CCCOC(=O)N1C2CCC1CC(N1CCC3(CC1)CN(S(=O)(=O)N(C)C)Cc1ccccc13)C2 (stereo not drawn) [compound 125]
- Emax [1]: 25 to 100%
- M1 Activity [1]: +++ (activity was measured to be less than 1.0 μM)
- Emax [2]: 25 to 100%
- M4 Activity [2]: +++ (activity was measured to be less than 1.0 μM)

SMILES: CCOC(=O)N1C2CCC1CC(N1CCC3(CC1)CN(C(=O)CC(F)(F)F)Cc1ccccc13)C2 (stereo not drawn) [compound 126]
- Emax [1]: 25 to 100%
- M1 Activity [1]: +++ (activity was measured to be less than 1.0 μM)
- Emax [2]: 25 to 100%
- M4 Activity [2]: +++ (activity was measured to be less than 1.0 μM)

SMILES: CCOC(=O)N1CCC(CN2CCC3(CC2)CN(C(=O)NC2CCCC2)Cc2ccccc23)CC1 [compound 127]
- Emax [1]: 25 to 100%
- M1 Activity [1]: +++ (activity was measured to be less than 1.0 μM)
- Emax [2]: 25 to 100%
- M4 Activity [2]: +++ (activity was measured to be less than 1.0 μM)

SMILES: CCOC(=O)N1CCC(CN2CCC3(CC2)CN(C(=O)OC)Cc2ccccc23)CC1 [compound 128]
- Emax [1]: 25 to 100%
- M1 Activity [1]: +++ (activity was measured to be less than 1.0 μM)
- Emax [2]: 25 to 100%
- M4 Activity [2]: +++ (activity was measured to be less than 1.0 μM)

SMILES: CCCOC(=O)N1CCC(N2CCC3(CC2)CN(C(C)=O)Cc2ccccc23)CC1 [compound 129, Propyl 4-(2-acetyl-2,3-dihydro-1H-spiro[isoquinoline-4,4′-piperidine]-1′-yl)piperidine-1-carboxylate hydrochloride]
- Emax [1]: 25 to 100%
- M1 Activity [1]: +++ (activity was measured to be less than 1.0 μM)
- Emax [2]: 25 to 100%
- M4 Activity [2]: +++ (activity was measured to be less than 1.0 μM)

SMILES: CC(C)(C)CCN1CCC2(CC1)c1ccccc1C(=O)N2Cc1ccccc1 [compound 130]
- Emax [1]: 25 to 100%
- M1 Activity [1]: ++ (activity was measured to be from 1.0 μM to 5.0 μM)
- Emax [2]: < 25%
- M4 Activity [2]: + (activity was measured to be greater than 5.0 μM)

SMILES: CN(C)S(=O)(=O)N1Cc2ccccc2C2(CCN(C3CC4CCC(C3)N4C(=O)OC3CCC3)CC2)C1 (stereo not drawn) [compound 131]
- Emax [1]: 25 to 100%
- M1 Activity [1]: +++ (activity was measured to be less than 1.0 μM)
- Emax [2]: 25 to 100%
- M4 Activity [2]: +++ (activity was measured to be less than 1.0 μM)

SMILES: CCOC(=O)N1C2CCC1CC(N1CCC3(CC1)CN(C(=O)Nc1ccc(F)cc1)Cc1ccccc13)C2 (stereo not drawn) [compound 132]
- Emax [1]: 25 to 100%
- M1 Activity [1]: +++ (activity was measured to be less than 1.0 μM)
- Emax [2]: 25 to 100%
- M4 Activity [2]: +++ (activity was measured to be less than 1.0 μM)

SMILES: COC(=O)N1CCC(N2CCC3(CC2)CN(C(C)=O)Cc2ccccc23)CC1 [compound 133]
- Emax [1]: 25 to 100%
- M1 Activity [1]: +++ (activity was measured to be less than 1.0 μM)
- Emax [2]: 25 to 100%
- M4 Activity [2]: +++ (activity was measured to be less than 1.0 μM)

SMILES: O=C1NC2(CCN(CCC3CCSCC3)CC2)c2ccccc21 [compound 134]
- Emax [1]: < 25%
- M1 Activity [1]: + (activity was measured to be greater than 5.0 μM)
- Emax [2]: < 25%
- M4 Activity [2]: + (activity was measured to be greater than 5.0 μM)

SMILES: CCOC(=O)N1C2CCC1CC(N1CCC3(CC1)CN(c1cccc(Cl)c1)Cc1ccccc13)C2 (stereo not drawn) [compound 136]
- Emax [1]: > 100%
- M1 Activity [1]: +++ (activity was measured to be less than 1.0 μM)
- Emax [2]: 25 to 100%
- M4 Activity [2]: +++ (activity was measured to be less than 1.0 μM)

SMILES: CCOc1ccc(CN2CCC3(CC2)CN(C(C)=O)Cc2ccccc23)cc1 [compound 137]
- Emax [1]: < 25%
- M1 Activity [1]: + (activity was measured to be greater than 5.0 μM)
- Emax [2]: < 25%
- M4 Activity [2]: + (activity was measured to be greater than 5.0 μM)

SMILES: COCCOC(=O)N1Cc2ccccc2C2(CCN(C3CC4CCC(C3)N4C(=O)O[C@@H]3CCOC3)CC2)C1 (stereo partly drawn) [compound 138]
- Emax [1]: 25 to 100%
- M1 Activity [1]: +++ (activity was measured to be less than 1.0 μM)
- Emax [2]: 25 to 100%
- M4 Activity [2]: +++ (activity was measured to be less than 1.0 μM)

SMILES: CC(=O)N1Cc2ccccc2C2(CCN(Cc3ccoc3)CC2)C1 [compound 139]
- Emax [1]: < 25%
- M1 Activity [1]: + (activity was measured to be greater than 5.0 μM)
- Emax [2]: < 25%
- M4 Activity [2]: + (activity was measured to be greater than 5.0 μM)

SMILES: COC(=O)N1C2CCC1CC(N1CCC3(CC1)CN(C(C)=O)Cc1ccccc13)C2 (stereo not drawn) [compound 140]
- Emax [1]: 25 to 100%
- M1 Activity [1]: +++ (activity was measured to be less than 1.0 μM)
- Emax [2]: 25 to 100%
- M4 Activity [2]: +++ (activity was measured to be less than 1.0 μM)

SMILES: CCOC(=O)N1C2CCC1CC(N1CCC3(CC1)CN(c1cccc(OC)c1)Cc1ccccc13)C2 (stereo not drawn) [compound 141, ethyl 3-(2-(3-methoxyphenyl)-2,3-dihydro-1H-spiro[isoquinoline-4,4′-piperidine]-1′-yl)-8-azabicyclo[3.2.1]octane-8-carboxylate]
- Emax [1]: 25 to 100%
- M1 Activity [1]: +++ (activity was measured to be less than 1.0 μM)
- Emax [2]: 25 to 100%
- M4 Activity [2]: +++ (activity was measured to be less than 1.0 μM)

SMILES: CC(=O)N1Cc2ccccc2C2(CCN(Cc3sccc3C)CC2)C1 [compound 142]
- Emax [1]: < 25%
- M1 Activity [1]: + (activity was measured to be greater than 5.0 μM)
- Emax [2]: < 25%
- M4 Activity [2]: + (activity was measured to be greater than 5.0 μM)
